Measurements from patent US20240000741A1, “ALL-TRANS RETINOIC ACID ENHANCES RADIOTHERAPY AND OVERCOMES IMMUNE SUPPRESSION FOR CANCER THERAPY” (The University of Chicago, priority 2022, published 2024).

How the values were obtained:
[1] = system: MC38 tumor in Rag1−/− mice; conditions: ATRA 400 ug/each oral gavage daily plus X-ray 2 Gy/fraction, three consecutive days
Procedure: To further study whether T cell responses are important for the antitumor efficacy of ATRA (+) treatment, 2×10^6 MC38 cells were inoculated into the right flanks of Rag1^−/− […] mice, which are deficient of T and B cells. When the tumors reached 100-120 mm^3 in volume, Rag1^−/− mice were administered 400 ug/each ATRA daily via oral gavage followed by 2 Gy/fraction X-ray on three consecutive days. The tumor size was measured with a caliper every day and the tumor volume calculated as 0.5×length×width 2. All of the mice were sacrificed when the control group tumors reached about 2000 mm^3.

CT26 tumor = assay: ATRA-sensitized fractionated radiotherapy in CT26 tumor bearing BALB/c mice; assay type: in vivo, mouse; conditions: 6 fractions
Procedure: 2×10^6 CT26 cells were subcutaneously injected into the right flanks of BALB/c mice. When the tumors reached 100-120 mm^3 in volume, ATRA in corn oil (400 μg/each) was daily administrated via oral gavage. After administration, mice were anaesthetized with 2% (v/v) isoflurane and the tumors were irradiated daily with X-ray at a dose of 1 Gy/fraction (225 kVp, 13 mA, 0.3 mm-Cu filter) for a total of 6 fractions on six consecutive days. Oil (equal volume/each) was daily administrated with or without irradiation as a control. The tumor size was measured with a caliper every day and the tumor volume calculated as 0.5×length×width 2. All the mice were sacrificed when the tumors reached about 2000 mm^3.

[2] = system: MC38 colon carcinoma tumors; assay: MC38 tumor growth after local ablative IR and/or RA; assay type: in vivo, mouse
[3] = system: Renca (a renal cancer tumor model); assay: Renca tumor growth after IR and RA; assay type: in vivo, mouse; conditions: IR and RA combination compared with single treatments
Procedure: 1×10^6 MC38, B16/F1, Renca or CT26 cells were subcutaneously implanted into flanks of mice. Tumors were irradiated using a Phillips IR250 orthovoltage X-ray generator (Phillips, Amsterdam, the Netherlands) operating at 250 kV 15 mA. Subcutaneous local tumors were irradiated by shielding bodies with a cylindrical lead cover with only flank tumors exposed for radiation. ATRA (400 μg/mice/day) was administered by oral gavage for 10 days. For the two-tumor model, 1×10^6 and 0.7×10^6 MC38 cells were subcutaneously implanted into the right and left flank of mice respectively. […] Tumors were measured along two diameters (length and width) and depth twice weekly and volumes were calculated as length×width×depth/2. For CD8 and CD4 T cell depletion experiments, 200 μg antibodies were injected i.p. on day 0, 2, 5 and 8 after radiation. Anti-CD11b antibody was injected i.p. every two days starting 1 day before radiation. Anti-PD-L1 antibody was administered i.p. on day 0, 3, and 7 after radiation at 200 μg/mouse. Anti-IFN-γ was administered i.p. at 500 μg/mouse every 7 days. Anti-NK1.1 antibody was administered via i.p. at 25 μg/mouse every 3 days for 3 doses. Anti-GM-CSF antibody was given by i.p. injection at 250 μg/mouse every 2 days. FTY720 was delivered via gavage at 20 μg per dose every day for 7 days. […]

MC38 cells = assay: Tumor re-challenge of cured mice with MC38 cells; assay type: in vivo, mouse; conditions: mice cured by IR+RA, re-challenged with 5×10^6 MC38 cells
Procedure: 1×10^6 MC38, B16/F1, Renca or CT26 cells were subcutaneously implanted into flanks of mice. Tumors were irradiated using a Phillips IR250 orthovoltage X-ray generator (Phillips, Amsterdam, the Netherlands) operating at 250 kV 15 mA. Subcutaneous local tumors were irradiated by shielding bodies with a cylindrical lead cover with only flank tumors exposed for radiation. ATRA (400 μg/mice/day) was administered by oral gavage for 10 days. For the two-tumor model, 1×10^6 and 0.7×10^6 MC38 cells were subcutaneously implanted into the right and left flank of mice respectively. For the tumor re-challenge assay, both the cured mice and the naive mice were re-challenged with 5×10^6 MC38 or 1×10^6 LLC cells respectively. Tumors were measured along two diameters (length and width) and depth twice weekly and volumes were calculated as length×width×depth/2. For CD8 and CD4 T cell depletion experiments, 200 μg antibodies were injected i.p. on day 0, 2, 5 and 8 after radiation. Anti-CD11b antibody was injected i.p. every two days starting 1 day before radiation. Anti-PD-L1 antibody was administered i.p. on day 0, 3, and 7 after radiation at 200 μg/mouse. Anti-IFN-γ was administered i.p. at 500 μg/mouse every 7 days. Anti-NK1.1 antibody was administered via i.p. at 25 μg/mouse every 3 days for 3 doses. Anti-GM-CSF antibody was given by i.p. injection at 250 μg/mouse every 2 days. […]

[4] = ATRA 400 μg/each oral gavage daily plus X-ray 1 Gy/fraction

CC1=C(/C=C/C(C)=C/C=C/C(C)=C/C(=O)O)C(C)(C)CCC1 [RA, all-trans retinoic acid]
therapeutic effect on MC38 tumors in Rag1−/− mice [1]: did not show any therapeutic effect
CT26 tumor growth (CT26 tumor; [4]): regressed tumor growth
mice totally free of tumors (CT26 tumor; [4]): 2 out of 5
body weight (CT26 tumor; ATRA plus X-ray 1 Gy/fraction): No weight loss
MC38 tumor growth ([2]; IR (15 Gy) plus RA 400 μg/dose oral gavage, compared to untreated controls or any single treatment): synergistically inhibited tumor growth
complete tumor regression ([2]; IR (15 Gy) plus RA combination treatment): 17 of 19
tumor inhibition ([2]; IR with RA administered by i.p. injection): Significant tumor inhibition effects
tumor inhibition ([2]; IR with RA at a lower dose (200 μg/dose) by oral gavage): Significant tumor inhibition effects
tumor inhibition ([2]; IR with slow RA-releasing pellets implanted subcutaneously): Significant tumor inhibition effects
MC38 tumor growth ([2]; IR+RA, tumors grown in Rag1−/− mice, in contrast to wild type mice): did not respond
survival ([2]; RA alone): ≤ 50 days
MC38 tumor growth ([2]; RA alone, 400 μg/dose oral gavage): no significant effect
MC38 tumor growth ([2]; higher dose of RA alone (800 μg/mouse/dose) for 7 days): inhibited
Renca tumor growth [3]: significant benefit
tumor formation after re-challenge with MC38 cells (MC38 cells): did not form tumors
